# Source: patent US6958353B2, “Imidazole derivatives or salts thereof and drugs containing the derivatives or the salts” (Hisamitsu Medical Co., Ltd., priority 2000, dated 2005)
# How the values were obtained:
# RAW 264.7 cells [1] = test: Effect of inhibiting production of NO in LPS-stimulated RAW 264.7 cells (Griess reagent); format: cell-based, mouse; conditions: compound 2 μg/mL, RAW 264.7 cells stimulated with LPS 25 ng/mL
# Protocol: (§1) Effect of Inhibiting Production of NO and IL-6
# (§2) Growth of RAW 264.7 cells (mouse macrophage strains) was maintained in an RPMI 1640 medium containing 10% fetal bovine serum (FBS) and an antibiotic (10% FBS/RPMI) under culture conditions of 5% CO2 at 37° C. Upon testing, RAW 264.7 cells were washed with cold Dulbecco's phosphate buffered saline and subsequently removed from the plastic culture bottle by use of EDTA/trypsin. The thus-removed cells were centrifuged-and washed, followed by dilution with 10% FBS/RPMI to 4×10^5/mL. The cell suspension (0.5 mL) was added to each well of a 24-well-plate, and cultured under 5% CO2, at 37° C. for 16 hours. […] The live cells were washed once with 1% FBS/RPMI. Each test compound was diluted with the same medium, to thereby adjust the concentration to a predetermined level, and the liquid containing the test compound was added to the washed cells. […] NO contained in the culture supernatant was quantitated for its stable form (NO2^−) by use of a Griess reagent kit (product of Wako Pure Chemical Industries Ltd.). IL-6 was quantitated by use of an ELISA kit (product of Amersham) in accordance with the manual thereof. […]
# [2] = tested on: carrageenan-induced edema; test: Anti-inflammatory effect 1: effect against carrageenan-induced edema; format: in vivo; conditions: mouse, leg volume 9 days after carrageenan
# From the text: Anti-inflammatory Effect 1: Effect Against Carrageenan-induced Edema
# Male ICR mice (4 weeks old, Japan Charles River Co., Ltd.) were pre-bred in a breeding cage for about one week, and-healthy mice were selected for the test.
# (2) Drugs Employed in the Test:
# Each test compound was suspended in a 0.5% carboxymethyl cellulose sodium (0.5% CMC-Na solution, product of Wako Pure Chemical Industries, Ltd.) or dissolved in purified water. The suspension or solution was perorally administered at a dose of 0.1 mL/10 g (body weight of each mouse).
# λ-Carrageenan (Picnin A, product of Zushi Kagaku) dissolved in physiological saline was used.
# The volume of the right rear leg of each mouse was measured by means of a plethysmometer (product of Ugo Basile). Subsequently, a 2% carrageenan solution (0.05 mL) was injected into the foot pad of the leg. Five days after the injection of carrageenan (inflammation-inducing agent), the volume of the leg was measured. The mice were divided into groups, each group containing 8 mice. From the day of division (i.e., 5 days after administration of carrageenan), each test compound was preorally administered once per day for four days. The leg volume was measured before administration of each test compound and on the day after the final administration day (i.e., 9 days after administration of carrageenan). Percent edema and percent inhibition due to the test compound were calculated in accordance with the following equations, respectively. Percent edema (%)=[(leg volume (mL) after inflammation treatment−leg volume (mL) before inflammation treatment)/(leg volume (mL) before inflammation treatment)]×100 Percent inhibition (%)=[percent edema of control group (%)−percent edema of test-compound-administered group (%))/(percent edema of control group (%))]×100
# RAW 264.7 cells [3] = test: Effect of inhibiting production of IL-6 in LPS-stimulated RAW 264.7 cells (ELISA); format: cell-based; conditions: Mus musculus, RAW264.7, compound at 2 μg/mL, read-out: IL-6 production inhibitory effect Percent inhibition (%)
# Protocol: as §1, §2
compound,measurement,setting,value
"5-(2-[4-(1H-Imidazolylmethyl)phenoxy]ethyl)sulfanil-2,3-diphenylpyrazine [Compound 1I]",NO production inhibitory effect Percent inhibition (%),RAW 264.7 cells [1],62.8%
"c1ccc(-c2ncc(OCCOc3ccc(Cn4ccnc4)cc3)nc2-c2ccccc2)cc1 [Compound 1A, 5-2-[4-(1H-imidazolylmethyl)phenoxy]ethoxy-2,3-diphenylpyrazine]",Percent inhibition (%) of carrageenan-induced edema,[2]; 3 mg/kg perorally once per day for four days,30.5%
same,inhibition at 2 µg/mL,RAW 264.7 cells [3],54.6%
same,inhibition at 2 µg/mL,"RAW 264.7 cells [1]; Mus musculus, RAW264.7, read-out: NO production inhibitory effect Percent inhibition (%)",86%
"[O-][S+](CCOc1ccc(Cn2ccnc2)cc1)c1cnc(-c2ccccc2)c(-c2ccccc2)n1 (stereo not drawn) [Compound 1J, 5-(2-[4-(1H-imidazolylmethyl)phenoxy]ethyl)sulfinyl-2,3-diphenylpyrazine]",Percent inhibition (%) of carrageenan-induced edema,[2]; 10 mg/kg perorally once per day for four days,41.2%
COc1ccc2c(c1)c(CC(=O)O)c(C)n2C(=O)c1ccc(Cl)cc1 [Indomethacin],Percent inhibition (%) of carrageenan-induced edema,[2]; 1 mg/kg perorally once per day for four days,23.8%
